Measured values as given in US20230301972A1, “ANTI-FIBROTIC COMPOSITION AND RELATED METHODS” (Fred Hutchinson Cancer Center, priority 2020, published 2023).

What was measured:
Format in all cases: cell-based, human
LX2 cells [1] = assay: Live cell wound healing assay in LX2 cells; settings: 1 μM; TGFb 6.5 ng/ml; wound closure density at 50 hour
Protocol: (§1) LX2 cells were obtained from Sigma Aldrich (Cat #SCC064). LX2 cells were grown at 37° C. under 5% CO2, 95% ambient atmosphere and maintained in Dulbecco's […] (DMEM) supplemented with 10% FBS (Sigma) and 1% Penn Strep.
FIG. 10A: LX2 cells were plated on 96-well plates (Essen Image Lock, Essen Instruments). […] Wound closure was monitored with Incucyte Live-Cell Imaging System and software (Essen Instruments) every 2-4 hours for 72 hours. The mean relative wound density of at least three biological replicates was calculated. The wound density correlates with the cell motility. Plotted is the wound closure density at 50 hour.

LX2 cells [2] = assay: qPCR of TGF-β-induced gene expression in LX2 cells; settings: galunisertib
Protocol: as §1
(§2) FIGS. 10B and 10C: LX2 cells were incubated with TGF-β alone at 6.5 ng/ml or TGF-β with indicated drugs for 48 hours. Total cellular RNA was isolated using a RNeasy Mini Kit (QIAGEN). 1 μg of total RNA was reverse transcribed into first-strand cDNA using an RT2 First Strand Kit (QIAGEN). The resultant cDNA was subjected to qPCR using indicated human primers to measure the changes in mRNA expression of indicated human genes.

[3] = system: IPF-LL29 and IPF-LL97A cells; assay: qPCR of TGF-β-induced gene expression in IPF-LL29 and IPF-LL97A cells; settings: nintedanib at a same equivalent dose, pirfenidone at a much higher dose; FIGS. 2A, 2B, 3A, 3B
Protocol: IPF-LL29, IPF-LL97A, and human lung fibroblast LL47 cell lines were purchased from ATCC. Mouse lung fibroblasts were isolated from the lungs of male C57BL/6J mice. Cells were grown at 37° C. under 5% CO2, 95% ambient atmosphere and maintained in Dulbecco's […] (DMEM) supplemented with 10% FBS (Sigma) and 1% Penn Strep.
as §2, with “2A” for “10B”, “2B. IPF-29 (FIG. 2A) or IPF-97A (FIG. 2B)” for “10C: LX2”, “5” for “6.5”, “hours and 5 days.” for “hours.”

Row | Compound | TGF-β-induced motility of LX2 cells (LX2 cells [1]) | effect on TGF-β-induced expression of COL1A1 and αSMA (LX2 cells [2]) | TGF-β induced expression of myofibroblast activation marker genes or proliferation stimuli [3]
1 | Cc1cccc(-c2nn3c(c2-c2ccnc4ccc(C(N)=O)cc24)CCC3)n1 [galunisertib, reference compound] | did not affect LX2 cell motility | modest effect | 
2 | COC(=O)c1ccc2c(c1)NC(=O)/C2=C(\Nc1ccc(N(C)C(=O)CN2CCN(C)CC2)cc1)c1ccccc1 [nintedanib, reference compound] |  |  | did not effectively block
3 | Cc1ccc(=O)n(-c2ccccc2)c1 [pirfenidone, reference compound] |  |  | did not effectively block
